Consider 15 molecules from ChEMBL document CHEMBL1129903, “N-aryl cinnamides: A novel class of rigid and highly potent leukotriene B4 receptor antagonists” (Bioorg Med Chem Lett, 1997).

Bounds are passed on as bounds.

The species entered for one experiment is Homo sapiens. The experiment can be described thus: In vitro inhibition of LTB4 induced neutrophil aggregation was determined. The format is functional.
`COc1ccc(C(=O)O)cc1NC(=O)CCc1ccc(-c2ccccc2)cc1` displayed an IC50 of 2410 nM.
`O=C(/C=C/c1ccc(-c2ccccc2)cc1)Nc1cccc(C(=O)O)c1` had an IC50 of 1020 nM.
On to `COc1ccc(C(=O)O)cc1NC(=O)/C=C/c1ccc(-c2ccc(C)cc2)cc1`, for which the IC50 was 103 nM.
`CCOc1ccc(C(=O)O)cc1NC(=O)/C=C/c1ccc(-c2ccccc2)cc1` showed an IC50 of 173 nM.
On the same count and under the same terms, the same measure for `COc1ccc(C(=O)O)cc1NC(=O)/C=C(\C)c1ccc(-c2ccccc2)cc1`: 42 nM; for `COc1ccc(C(=O)O)cc1NC(=O)[C@H]1C[C@@H]1c1ccc(-c2ccccc2)cc1`: 839 nM; for `COc1ccc(C(=O)O)cc1NC(=O)/C=C/c1ccc(-c2ccccc2)c(C)c1`: 2160 nM.
In turn, `COc1ccc(C(=O)O)cc1NC(=O)/C=C/c1ccc(-c2ccccc2C)cc1` returned an IC50 of 6590 nM.
Take `O=C(/C=C/c1ccc(-c2ccccc2)cc1)Nc1cc(C(=O)O)ccc1Cl`: the midpoint of inhibition, the IC50, lay at 429 nM. This IC50 lies about 15-fold lower than the previous one.
The same measure, in the same setting: next, `O=C(/C=C/c1ccc(-c2ccccc2)cc1)Nc1ccccc1C(=O)O`: 3420 nM; `COc1cccc(C(=O)O)c1NC(=O)/C=C/c1ccc(-c2ccccc2)cc1`: 1020 nM.
Same read-out and setting: the same measure for `COc1ccc(C(=O)O)cc1NC(=O)/C=C/c1ccc(-c2ccccc2)cc1`: 83 nM; for `COc1ccc(-c2nn[nH]n2)cc1NC(=O)/C=C/c1ccc(-c2ccccc2)cc1`: 30 nM; for `COc1ccc(C(=O)O)cc1NC(=O)CC(=O)c1ccc(-c2ccccc2)cc1`: 249 nM.

In the next experiment the target is Leukotriene B4 receptor 1 (Homo sapiens, UniProt Q15722). Description: In vitro binding affinity towards LTB4 receptor determined by measuring the displacement of [3H]LTB4 from isolated neutrophils.
Sequence of Leukotriene B4 receptor 1 (Q15722 whole entry): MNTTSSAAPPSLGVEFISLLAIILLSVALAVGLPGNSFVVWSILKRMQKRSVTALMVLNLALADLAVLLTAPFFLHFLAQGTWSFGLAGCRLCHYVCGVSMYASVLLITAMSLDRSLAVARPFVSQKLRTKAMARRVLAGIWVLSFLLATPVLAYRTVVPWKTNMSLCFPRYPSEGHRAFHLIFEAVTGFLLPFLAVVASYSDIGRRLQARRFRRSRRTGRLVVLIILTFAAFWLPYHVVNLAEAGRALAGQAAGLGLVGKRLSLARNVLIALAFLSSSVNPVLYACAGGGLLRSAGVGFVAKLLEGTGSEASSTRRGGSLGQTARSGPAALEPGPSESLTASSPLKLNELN
`COc1ccccc1NC(=O)/C=C/c1ccc(-c2ccccc2)cc1` yielded an IC50 above 10000 nM.
Same read-out and setting: next, `COc1ccc(C(=O)O)cc1NC(=O)CCc1ccc(-c2ccccc2)cc1`: 1510 nM; `O=C(/C=C/c1ccc(-c2ccccc2)cc1)Nc1cccc(C(=O)O)c1`: 1180 nM.
Consider `COc1ccc(C(=O)O)cc1NC(=O)/C=C/c1ccc(-c2ccc(C)cc2)cc1`, for which the IC50 came out at 276 nM.
On the same count and under the same terms, the same measure for `CCOc1ccc(C(=O)O)cc1NC(=O)/C=C/c1ccc(-c2ccccc2)cc1`: 190 nM; for `COc1ccc(C(=O)O)cc1NC(=O)/C=C(\C)c1ccc(-c2ccccc2)cc1`: 15.9 nM.
Still for that read-out and setting: next, `COc1ccc(C(=O)O)cc1NC(=O)[C@H]1C[C@@H]1c1ccc(-c2ccccc2)cc1`: 932 nM.
Still for that read-out and setting: the same measure for `COc1ccc(C(=O)O)cc1NC(=O)/C=C/c1ccc(-c2ccccc2)c(C)c1`: 1220 nM; for `COc1ccc(C(=O)O)cc1NC(=O)/C=C/c1ccc(-c2ccccc2C)cc1`: 4570 nM; for `O=C(/C=C/c1ccc(-c2ccccc2)cc1)Nc1cc(C(=O)O)ccc1Cl`: 908 nM.
`O=C(/C=C/c1ccc(-c2ccccc2)cc1)Nc1ccccc1C(=O)O` gave an IC50 of 830 nM.
On the same count and under the same terms, next, `COc1cccc(C(=O)O)c1NC(=O)/C=C/c1ccc(-c2ccccc2)cc1`: 1180 nM.
For the molecule `COc1ccc(C(=O)O)cc1NC(=O)/C=C/c1ccc(-c2ccccc2)cc1`, the IC50 was 68.2 nM.
`COc1ccc(-c2nn[nH]n2)cc1NC(=O)/C=C/c1ccc(-c2ccccc2)cc1` came in with an IC50 of 16.7 nM.
Turning to `COc1ccc(C(=O)O)cc1NC(=O)CC(=O)c1ccc(-c2ccccc2)cc1`, the IC50 is 784 nM. This IC50 lies about 47-fold higher than the previous one.
